Results taken from patent publication US20160355684A1, “ANTHRAQUINONE DYE USED FOR A COLOR FILTER OF A LCD” (DOW GLOBAL TECHNOLOGIES LLC, priority 2014, published 2016).

Key:
Type in all cases: physicochemical
[1] = Solubility of dye in PGMEA; settings: solvent PGMEA (propylene glycol monomethyl ether acetate)
[2] = Thermal stability of films (chromaticity difference ΔEab after baking); settings: for ΔEab after baking at 230° C. for 1 h: film of dye in alkaline soluble acrylic resin on glass, hard bake 230° C., air, smaller value = better heat resistance
Method: 0.15 g of Dye 1, 1.35 g PGMEA and 1.00 g of alkaline soluble acrylic resin solution (MIPHOTO RPR4022, supplied from Miwan Commercial Co., Ltd., 25 to 35% of solid content in (methyl 3-methoxypropionate)) were mixed and stirred for overnight at room temperature using a shaker. The solution was filtered with a 0.45 μm Acrodisc CR PTFE filter to get rid of big particles. Then the filtered solution was spin coated onto a clean glass substrate with 400 rpm spin speed for 18 seconds. The obtained film was first dried at 90° C. under air atmosphere for 30 minutes, and then hard baked at 230° C. under air atmosphere for 1 hour. The CIE values (xyY values and lab values) and the UV-Vis were measured before and after the hard bake.
The obtained dry film was further baked at 230° C. under air for 1 hour to evaluate thermal stability of the film. Optical performance after baking (ΔEab value) was 1.8, and the one of after further baking was 2.7. A smaller ΔEab value indicates better heat resistance.
(4) Thermal Stability of Films (Chromaticity):
The wet film after spin coating is dried in oven at 90° C. for 30 minutes and then soft baked at 150° C. for 15 minutes. The chromaticity coordinates (L, a, b) are recorded with UltraScan Pro (Hunterlab) colorimeter. D65/10 light source is used and results are based on CIE Lab coordinates. After that the film is hard baked at target temperature (230° C.) for 1 hour and the new chromaticity coordinates (L′, a′, b′) are recorded with the method above. The thermal stability of a film is indicated by the difference of chromaticity coordinate after baking at 230° C. represented by the following formula;
ΔE=√{square root over ((L−L′)^2+(a−a′)^2+(b−b′)^2)}

[3] = Thermal stability of dyes (mass loss measured by TGA); settings: dye itself
Method: (1) Thermal Stability of Dyes (Mass Loss Measured by TGA):
The thermal stability of dye itself was determined by the mass loss of dye measured by TGA under air atmosphere at 230° C. for 1 hour. This evaluation reflects chemical stability of the dye itself.

## CC(C[Si](C)(O[Si](C)(C)C)O[Si](C)(C)C)C(=O)OCCNc1ccc(NCCOC(=O)C(C)C[Si](C)(O[Si](C)(C)C)O[Si](C)(C)C)c2c1C(=O)c1ccccc1C2=O (centres unmarked) [(QS), reference compound]
[1]
  Solubility in PGMEA (wt %): ~4.6 wt %
[2]
  ΔEab after baking at 230° C. for 1 h: 24.5 (color changed

## Cc1cc(OCCC[Si](C)(O[Si](C)(C)C)O[Si](C)(C)C)cc(C)c1Nc1ccc(Nc2c(C)cc(OCCC[Si](C)(O[Si](C)(C)C)O[Si](C)(C)C)cc2C)c2c1C(=O)c1ccccc1C2=O [Dye 1]
[1]
  Solubility in PGMEA (wt %): 17 wt %
[2]; Dye 1 film, after baking
  Optical performance after baking (ΔEab value): 1.8
[2]; Dye 1 film, further baked at 230° C. under air for 1 hour
  ΔEab value after further baking: 2.7
[2]
  ΔEab after baking at 230° C. for 1 h: 3.2
[3]
  weight loss at 230° C. for 1 h in air from TGA: 7.74%

## Cc1cc(C)c(Nc2ccc(Nc3c(C)cc(OCCC[Si](C)(C)O[Si](C)(C)O[Si](C)(C)CCCOc4cc(C)c(Nc5ccc(Nc6c(C)cc(C)cc6C)c6c5C(=O)c5ccccc5C6=O)c(C)c4)cc3C)c3c2C(=O)c2ccccc2C3=O)c(C)c1 [Dye 2]
[3]
  weight loss at 230° C. for 1 h in air from TGA: 2.49%

## Cc1cc(C)c(Nc2ccc(Nc3c(C)cc(OCCC[Si](C)(O[Si](C)(C)C)O[Si](C)(CCCOc4cc(C)c(Nc5ccc(Nc6c(C)cc(C)cc6C)c6c5C(=O)c5ccccc5C6=O)c(C)c4)O[Si](C)(C)C)cc3C)c3c2C(=O)c2ccccc2C3=O)c(C)c1 (centres unmarked) [Dye 2]
[1]
  Solubility in PGMEA (wt %): 11.0 wt %
[2]
  ΔEab after baking at 230° C. for 1 h: 3.6
[3]
  weight loss at 230° C. for 1 h in air from TGA: 6.79%

## Cc1cc(C)c(Nc2ccc(Nc3c(C)cc(OCCC[Si](C)(C)O[Si](C)(C)O[Si](C)(C)CCCOc4cc(C)c(Nc5ccc(Nc6c(C)cc(C)cc6C)c6c5C(=O)c5ccccc5C6=O)c(C)c4)cc3C)c3c2C(=O)c2ccccc2C3=O)c(C)c1 [Dye 3]
[1]
  Solubility in PGMEA (wt %): 9.7 wt %
[2]
  ΔEab after baking at 230° C. for 1 h: 1.5

## CC(C)Nc1ccc(NC(C)C)c2c1C(=O)c1ccccc1C2=O [Solvent Blue 36, reference compound]
[1]
  Solubility in PGMEA (wt %): 1.92 wt %
[2]
  ΔEab after baking at 230° C. for 1 h: 33 (color almost

## Cc1cc(C)c(Nc2ccc(Nc3c(C)cc(C)cc3C)c3c2C(=O)c2ccccc2C3=O)c(C)c1 [Solvent Blue 104, 1,4-bis(mesitylamino)anthraquinone, reference compound]
[1]
  Solubility in PGMEA (wt %): 0.6 wt %
[2]
  ΔEab after baking at 230° C. for 1 h: 7.0
